Laboratory results published in ChEMBL document CHEMBL1201862, “PubChem BioAssay data set” (2004).
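Each compound was tested at five concentrations against cells in 96-well plates for 48 hours. The concentration for 50% growth inhibition is given as GI50.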 Activity calls are given as the source filed them. Cut-off read from the data, not from the text of the source: active = GI50 up to about 1.1 µM and inactive = higher.

Key:
Experiment in all cases: NCI-60 cell line screen, 48 h
SK-MEL-28 = tested on: SK-MEL-28
OVCAR-8 = tested on: OVCAR-8
UACC-257 = tested on: UACC-257
OVCAR-3 = tested on: OVCAR-3
HCC 2998 = tested on: HCC 2998
MDA-MB-435 = tested on: MDA-MB-435
ACHN = tested on: ACHN
SK-MEL-2 = tested on: SK-MEL-2
MDA-MB-231 = tested on: MDA-MB-231
HT-29 = tested on: HT-29
SW-620 = tested on: SW-620
KM12 = tested on: KM12
DU-145 = tested on: DU-145
NCI-H23 = tested on: NCI-H23
HOP-92 = tested on: HOP-92
RPMI-8226 = tested on: RPMI-8226
IGROV-1 = tested on: IGROV-1
TK-10 = tested on: TK-10
MOLT-4 = tested on: MOLT-4
SR = tested on: SR

Measured: GI50

CNc1ncnc2c1cnn2Cc1cn(COCC(O)CO)nn1 (stereo not drawn)
inactive: SK-MEL-28 > 100 µM | OVCAR-8 > 100 µM | UACC-257 > 100 µM | OVCAR-3 > 100 µM | HCC 2998 > 100 µM | MDA-MB-435 > 100 µM | ACHN > 100 µM | SK-MEL-2 > 100 µM | MDA-MB-231 > 100 µM | HT-29 > 100 µM | SW-620 > 100 µM | KM12 > 100 µM | DU-145 > 100 µM | NCI-H23 > 100 µM | HOP-92 59.4 µM | RPMI-8226 > 100 µM | IGROV-1 > 100 µM | TK-10 > 100 µM

O=C1CCCCC/C1=C\c1ccc([N+](=O)[O-])cc1
inactive: SK-MEL-28 65 µM | OVCAR-8 38.8 µM | UACC-257 20.9 µM | OVCAR-3 21.9 µM | HCC 2998 17.1 µM | MDA-MB-435 38.1 µM | ACHN 21.5 µM | MOLT-4 41.7 µM | SK-MEL-2 33 µM | MDA-MB-231 13 µM | HT-29 30.3 µM | SW-620 39.9 µM | KM12 19.8 µM | DU-145 41.4 µM | SR 40.1 µM | RPMI-8226 33.3 µM | IGROV-1 16.3 µM | TK-10 28.5 µM

CC(=O)O[C@@H]1C2=C(C)C=C(O2)[C@H]2O[C@]2(C)C[C@H]2C=C(C(=O)O2)[C@H](OC(C)=O)CC1[C@@]1(C)CO1 (stereo partly drawn)
inactive: SK-MEL-28 19.4 µM | OVCAR-8 35.4 µM | UACC-257 28.1 µM | HCC 2998 > 100 µM | MDA-MB-435 23.5 µM | ACHN 23.7 µM | MOLT-4 9.64 µM | SK-MEL-2 56.1 µM | MDA-MB-231 27.4 µM | HT-29 25.4 µM | SW-620 12.8 µM | KM12 36.6 µM | DU-145 31.3 µM | NCI-H23 28.9 µM | SR 18.7 µM | RPMI-8226 13.9 µM | IGROV-1 14.3 µM | TK-10 60.3 µM

CCOC(=O)Cc1csc(Nc2ccccc2[N+](=O)[O-])n1
inactive: SK-MEL-28 > 100 µM | OVCAR-8 > 100 µM | UACC-257 > 100 µM | OVCAR-3 > 100 µM | HCC 2998 > 100 µM | ACHN > 100 µM | MOLT-4 > 100 µM | SK-MEL-2 > 100 µM | HT-29 > 100 µM | SW-620 > 57.5 µM | KM12 > 100 µM | NCI-H23 > 100 µM | HOP-92 > 100 µM | SR 29.7 µM | RPMI-8226 > 100 µM | IGROV-1 > 100 µM | TK-10 > 100 µM

CC1(C)CC(=O)c2c(nc3c(ccc4ccccc43)c2-c2ccc(NC(=O)CCCC(=O)Nc3ccc(-c4c5c(nc6c4ccc4ccccc46)CC(C)(C)CC5=O)cc3)cc2)C1
inactive: SK-MEL-28 > 100 µM | OVCAR-8 > 100 µM | UACC-257 > 100 µM | OVCAR-3 > 100 µM | MDA-MB-435 > 100 µM | ACHN > 100 µM | MOLT-4 > 100 µM | SK-MEL-2 > 100 µM | MDA-MB-231 > 100 µM | HT-29 > 100 µM | SW-620 > 100 µM | KM12 > 100 µM | DU-145 > 100 µM | SR > 100 µM | RPMI-8226 > 100 µM | IGROV-1 58.5 µM | TK-10 > 100 µM

CCOC(=O)C1(C#N)C(=O)c2cc[n+](CC[n+]3ccc4c(c3)C(=O)C(C#N)(C(=O)OCC)C4=O)cc2C1=O (stereo not drawn)
inactive: SK-MEL-28 > 100 µM | OVCAR-8 > 100 µM | UACC-257 > 100 µM | OVCAR-3 25.4 µM | HCC 2998 > 100 µM | MDA-MB-435 > 100 µM | ACHN > 100 µM | MOLT-4 > 100 µM | SK-MEL-2 36.1 µM | MDA-MB-231 60.5 µM | HT-29 > 100 µM | SW-620 > 100 µM | KM12 > 100 µM | DU-145 > 100 µM | NCI-H23 > 100 µM | HOP-92 > 100 µM | RPMI-8226 > 100 µM | IGROV-1 > 100 µM

COC(=O)C1C(C(=O)OC)C2(OC)c3ccccc3-c3ccccc3C12 (stereo not drawn)
inactive: SK-MEL-28 90.2 µM | OVCAR-8 49.7 µM | UACC-257 24.2 µM | OVCAR-3 31 µM | HCC 2998 64.3 µM | ACHN 37.9 µM | MOLT-4 12.1 µM | SK-MEL-2 8.51 µM | HT-29 32.2 µM | SW-620 48.1 µM | KM12 35.6 µM | NCI-H23 27.6 µM | HOP-92 35 µM | SR 15.5 µM | RPMI-8226 9.89 µM | IGROV-1 35 µM | TK-10 31.8 µM

Cc1ccccc1C1CC(c2ccccc2)=NO1 (stereo not drawn)
inactive: SK-MEL-28 > 100 µM | OVCAR-8 > 100 µM | UACC-257 > 100 µM | OVCAR-3 > 100 µM | HCC 2998 > 100 µM | ACHN > 100 µM | MOLT-4 > 100 µM | SK-MEL-2 > 100 µM | HT-29 > 100 µM | SW-620 > 100 µM | KM12 > 100 µM | NCI-H23 > 100 µM | HOP-92 > 100 µM | SR > 100 µM | RPMI-8226 > 100 µM | IGROV-1 > 100 µM | TK-10 > 100 µM

CC(=O)NC(Cc1ccc(O)cc1)C(=O)O (stereo not drawn)
inactive: SK-MEL-28 > 100 µM | OVCAR-8 > 100 µM | UACC-257 > 100 µM | OVCAR-3 > 100 µM | HCC 2998 > 100 µM | MDA-MB-435 > 100 µM | ACHN > 100 µM | MOLT-4 > 100 µM | SK-MEL-2 > 100 µM | MDA-MB-231 > 100 µM | HT-29 > 100 µM | SW-620 > 100 µM | KM12 > 100 µM | DU-145 > 100 µM | NCI-H23 > 100 µM | HOP-92 > 100 µM | RPMI-8226 > 100 µM | IGROV-1 > 100 µM | TK-10 > 100 µM

Cc1ccccc1/N=N/c1ccc(/N=N/c2c(O)ccc3cc(S(=O)(=O)O)cc(S(=O)(=O)O)c23)c(C)c1
inactive: SK-MEL-28 > 100 µM | OVCAR-8 > 100 µM | UACC-257 > 100 µM | OVCAR-3 > 100 µM | HCC 2998 > 100 µM | MDA-MB-435 > 100 µM | ACHN > 100 µM | MOLT-4 > 100 µM | SK-MEL-2 > 100 µM | MDA-MB-231 > 100 µM | HT-29 > 100 µM | SW-620 > 100 µM | KM12 > 100 µM | NCI-H23 > 100 µM | HOP-92 > 100 µM | SR > 100 µM | RPMI-8226 > 100 µM | IGROV-1 > 100 µM | TK-10 > 100 µM

COc1ccc(NC(=O)CC2S/C(=N\c3ccccc3C)NC2=O)c([N+](=O)[O-])c1 (stereo not drawn)
inactive: SK-MEL-28 > 100 µM | OVCAR-8 > 100 µM | UACC-257 > 100 µM | OVCAR-3 > 100 µM | HCC 2998 > 100 µM | ACHN > 100 µM | MOLT-4 > 100 µM | SK-MEL-2 > 100 µM | HT-29 > 100 µM | SW-620 > 100 µM | KM12 > 100 µM | NCI-H23 > 100 µM | HOP-92 > 100 µM | SR > 100 µM | RPMI-8226 > 100 µM | IGROV-1 > 100 µM | TK-10 > 100 µM

Cc1ccc2c(c1)SC(c1cc3c(cc1Br)OCO3)S2 (stereo not drawn)
inactive: SK-MEL-28 > 31.6 µM | OVCAR-8 > 31.6 µM | UACC-257 > 31.6 µM | OVCAR-3 > 31.6 µM | HCC 2998 31 µM | ACHN > 31.6 µM | MOLT-4 31.4 µM | SK-MEL-2 > 31.6 µM | HT-29 18.7 µM | SW-620 86.1 µM | KM12 26.7 µM | NCI-H23 > 31.6 µM | HOP-92 6.22 µM | SR 23.3 µM | RPMI-8226 18.5 µM | IGROV-1 > 31.6 µM | TK-10 > 31.6 µM

CN(O)C(=O)CCC(NC(=O)CCC(N)C(=O)O)C(=O)NCC(=O)O (stereo not drawn)
inactive: SK-MEL-28 > 100 µM | OVCAR-8 > 100 µM | UACC-257 > 100 µM | OVCAR-3 > 100 µM | HCC 2998 > 100 µM | MDA-MB-435 > 100 µM | ACHN > 100 µM | MOLT-4 > 100 µM | SK-MEL-2 > 100 µM | MDA-MB-231 > 100 µM | HT-29 > 100 µM | SW-620 > 100 µM | KM12 > 100 µM | DU-145 > 100 µM | NCI-H23 > 100 µM | HOP-92 > 100 µM | RPMI-8226 > 100 µM | IGROV-1 > 100 µM | TK-10 > 100 µM

O=[N+]([O-])/C(C(Cl)=C(Cl)Cl)=C(\Nc1ccccc1)n1nnc2ccccc21
inactive: SK-MEL-28 32.7 µM | OVCAR-8 > 100 µM | UACC-257 > 100 µM | OVCAR-3 48.1 µM | HCC 2998 > 100 µM | MDA-MB-435 26.8 µM | ACHN > 100 µM | MOLT-4 35.5 µM | SK-MEL-2 27.2 µM | MDA-MB-231 27 µM | HT-29 44.8 µM | SW-620 32.2 µM | KM12 20.5 µM | NCI-H23 25.9 µM | RPMI-8226 21.6 µM

CCC1C(C(=O)Nc2ccccc2C)=C(C)NC(C)=C1c1ccccc1C (stereo not drawn)
inactive: SK-MEL-28 > 100 µM | OVCAR-8 > 100 µM | UACC-257 > 100 µM | OVCAR-3 > 100 µM | HCC 2998 > 100 µM | ACHN > 100 µM | MOLT-4 > 100 µM | SK-MEL-2 > 100 µM | HT-29 > 100 µM | SW-620 > 43.1 µM | KM12 > 100 µM | NCI-H23 > 100 µM | HOP-92 > 100 µM | SR 2.88 µM | RPMI-8226 31.8 µM | IGROV-1 > 100 µM | TK-10 > 100 µM
